Laboratory results published in patent US8895273B2, “Conversion of hexuronic acid to hexaric acid” (Teknologian Tutkimuskeskus VTT, priority 2008, dated 2014).

Columns and labels:
[1] = target: T1, D-galacturonic acid dehydrogenase (uronate dehydrogenase, EC 1.1.1.203, uro1) (Agrobacterium fabrum, UniProt Q7CRQ0); test: Michaelis-Menten characterization of the purified histidine-tagged D-galacturonic acid dehydrogenase (uro1); format: biochemical, Agrobacterium tumefaciens; conditions: for enzyme activity with the substrate: purified histidine-tagged protein
T1 construct: histidine-tag (His6); made in house; host or cells: Saccharomyces cerevisiae CEN.PK; purified on Ni-NTA-agarose
T1 sequence (Q7CRQ0 whole entry, added parts left off): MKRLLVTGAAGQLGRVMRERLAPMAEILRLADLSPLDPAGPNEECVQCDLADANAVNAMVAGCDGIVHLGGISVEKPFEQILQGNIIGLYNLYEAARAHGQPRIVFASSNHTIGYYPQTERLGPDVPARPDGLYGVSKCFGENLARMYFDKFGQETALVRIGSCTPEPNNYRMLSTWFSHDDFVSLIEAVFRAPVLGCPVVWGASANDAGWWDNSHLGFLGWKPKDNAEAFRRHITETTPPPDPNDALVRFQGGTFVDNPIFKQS
Protocol: (§1) The S. cerevisiae strain resulting from the Example 1 was then disintegrated by vortexing with glass beads and the yeast extract analysed for D-galacturonic acid dehydrogenase activity. In a control experiment a similar strain but with an empty plasmid was used. To assay the D-galacturonic acid dehydrogenase activity the crude cell extract was mixed with 0.5 mM NAD and 4 mM D-galacturonic acid in a 50 mM Tris pH 7.5 buffer containing 0.5 mM MgCl2. The activity was 0.12 units per mg of extracted protein. One unit is the activity that forms 1 μmol of product per minute. In the control strain no activity could be detected.
(§2) The D-galacturonic acid dehydrogenase with a histidine-tag at the N-terminal end was produced in a similar manner as in the Example 1, except that the histidine-tag was introduced by PCR. To introduce the histidine tag the following primers were used 5′-[…]-3′ (SEQ ID NO:5) in sense direction and 5′-[…]-3′ (SEQ ID NO:6) in anti-sense.
(§3) After the expression of the histidine-tagged protein in S. cerevisiae as described in the Example 1 the activity was measured as described in the Example 2. […] The histidine-tagged D-galacturonic acid dehydrogenase was then purified using a Ni-NTA-agarose (Qiagen) according to the instructions of the manufacturer. The purified enzyme gave a single band in an SDS PAGE.
(§4) The purified protein was then used to estimate the Michaelis-Menten constants.

[2] = target: T2, uronate dehydrogenase from Pseudomonas (GenBank EU377538) (Pseudomonas syringae pv. tomato, UniProt Q888H1); test: Enzyme activity of uronate dehydrogenase from Pseudomonas expressed in S. cerevisiae; format: biochemical, Pseudomonas syringae pv. tomato str. DC3000; conditions: yeast extract, with NAD, tested as in Example 2
T2 construct: The open reading frame was released by digestion with NcoI and SpeI; made in house; host or cells: Saccharomyces cerevisiae CEN.PK (crude cell extract)
T2 sequence (Q888H1 whole entry): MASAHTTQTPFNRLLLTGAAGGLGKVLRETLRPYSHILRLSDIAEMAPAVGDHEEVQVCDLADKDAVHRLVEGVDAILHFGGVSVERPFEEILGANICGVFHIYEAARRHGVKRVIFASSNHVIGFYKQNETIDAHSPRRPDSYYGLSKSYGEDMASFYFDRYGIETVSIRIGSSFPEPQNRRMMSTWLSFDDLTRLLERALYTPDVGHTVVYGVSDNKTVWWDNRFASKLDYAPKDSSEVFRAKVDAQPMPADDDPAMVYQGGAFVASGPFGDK
Protocol: as §1
The DNA coding for uronate dehydrogenase was custom-synthesised by GENEART. The codes for the same amino acid as the gene with the GenBank accession number EU377538. The DNA sequence is in the Sequence Listing SEQ ID NO: 19. It codes for the amino acid sequence SEQ ID NO:20.
The open reading frame was released by digestion with NcoI and SpeI. The resulting fragment was then ligated to the NcoI and NheI sites of the pYX212 (R&D Systems) which is a multicopy yeast expression vector with PGK1 promoter and URA3 selection marker. The resulting vector was then transfected to the S. cerevisiae strain CEN.PK as in the Example 1. The enzyme activity was then tested as in Example 2.

[3] = test system: O=C[C@H](O)[C@@H](O)[C@@H](O)[C@H](O)C(=O)O; test: Michaelis-Menten characterization of the purified histidine-tagged D-galacturonic acid dehydrogenase (uro1); format: biochemical, Agrobacterium tumefaciens; conditions: other: purified histidine-tagged enzyme; Michaelis-Menten constant of the substrate/cofactor; pH 7.5
Protocol: as §1, §2, §3, §4

[4] = test system: O=C[C@H](O)[C@@H](O)[C@H](O)[C@H](O)C(=O)O; test: as above; format: biochemical, Agrobacterium tumefaciens; conditions: other: purified histidine-tagged enzyme; Michaelis-Menten constant of the substrate/cofactor; pH 7.5
Protocol: as §1, §2, §3, §4

O=C[C@H](O)[C@@H](O)[C@@H](O)[C@H](O)C(=O)O [D-galacturonic acid]
enzyme activity with the substrate [1]: active | enzyme activity with the substrate [2]: showed activity

O=C[C@H](O)[C@@H](O)[C@H](O)[C@H](O)C(=O)O [GlcUA, D-glucuronic acid]
enzyme activity with the substrate [1]: active | enzyme activity with the substrate [2]: showed activity

NC(=O)c1ccc[n+]([C@@H]2O[C@H](COP(=O)([O-])OP(=O)(O)OC[C@H]3O[C@@H](n4cnc5c(N)ncnc54)[C@H](O)[C@@H]3O)[C@@H](O)[C@H]2O)c1 [NAD]
Km ([1]; purified histidine-tagged enzyme, Michaelis-Menten constant of the substrate/cofactor): 900 µM | Vmax ([1]; purified histidine-tagged enzyme, one unit forms 1 μmol of product per minute): 145 units per mg of protein

D-galacturonic acid dehydrogenase (uronate dehydrogenase, EC 1.1.1.203, uro1) (Agrobacterium fabrum str. C58)
Km [3]: 500 µM | Vmax [3]: 124 units per mg of protein | Km [4]: 1100 µM | Vmax [4]: 221 units per mg of protein
